{
  "source": "patent US20020068365A1",
  "about": "“CONTROLLED RELEASE NITRIC OXIDE PRODUCING AGENTS” (priority 1998, published 2002)",
  "origin": "cited, not measured here",
  "key": {"[1]": {"conditions": "L-arginine free base"}, "[2]": {"conditions": "30 grams of L-arginine as an infusion"}},
  "data": [
    {"smiles": "N=C(N)NCCC[C@H](N)C(=O)O", "note": "[L-arginine]", "values": [
      {"measurement": "pH range", "setting": "[1]", "result": "10.5-12.0"},
      {"measurement": "rise of circulating levels of L-arginine compared to baseline levels", "setting": "[2]", "result": "up to 100 fold"}
    ]}
  ]
}
